For data set [1], the system named is SU-DHL-6. The data set can be described thus: Induction of cell cycle arrest in human SU-DHL-6 cells assessed as accumulation of cells at sub G1 phase at 1 to 5 uM after 24 hrs by flow cytometry. The format is functional, cell-based. Particulars: dose 1-5 µM. For orientation: A flow cytometer gives signals particle by particle.
For data set [2], the system named is SU-DHL-2. As to the kind of experiment: Antiproliferative activity against human SUDHL2 cells assessed as viable cells at 10 uM by cello meter auto T4 cell counter relative to control. The format is functional. The note with it: read-out: Activity.
The test system of data set [3] is SUD4. The data set can be described thus: Antiproliferative activity against human SU-DHL-4 cells assessed as viable cells at 10 uM by cello meter auto T4 cell counter relative to control. Format: functional. The note with it: read-out: Activity.
In data set [4] the test system is SU-DHL-6. As to the kind of experiment: Antiproliferative activity against human SU-DHL-6 cells assessed as viable cells at 10 uM by cello meter auto T4 cell counter relative to control. The note with it: read-out: Activity. The format is functional.
Data set [5] concerns SU-DHL-2. As to the kind of experiment: Antiproliferative activity against EZH2 knockdown human SUDHL2 cells assessed as cell growth inhibition measured upto 6 days. The format is functional, cell-based. The note with it: time day <=6.
The subject of data set [6] is SU-DHL-6. The data set can be described thus: Induction of cell cycle arrest in human SU-DHL-6 cells assessed as accumulation of cells at G0/G1 phase at 1 to 5 uM after 24 hrs by flow cytometry. Format: functional, cell-based. The note with it: dose 1-5 µM.
Data set [7] deals with SU-DHL-6. As to the kind of experiment: Induction of apoptosis in human SU-DHL-6 cells at 1 to 5 uM incubated for 48 hrs by Annexin V/propidium iodide staining based flow cytometry. Particulars: dose 1-5 µM. Format: functional, cell-based.
The nature of data set [8]: Toxicity in nude BALB/c mouse xenografted with SU-DHL-6 cells assessed as weight loss at 42.5 mg/kg, ip administered for 6 times weekly for 3 weeks. Format: organism-based. Particulars: in vivo, 504 h.
In data set [9] the test system is SU-DHL-6. The data set can be described thus: Antitumor activity against human SU-DHL-6 cells xenografted in nude Balb/c mouse assessed as reduction in H3K27me3 level in tumor tissue at 42.5 mg/kg, ip administered for 6 times weekly for 3 weeks by Western blot analysis. The format is functional, organism-based. A general note: Xenograft models place foreign cells or tissue in a host animal.

Data set [10] deals with T1, von Hippel-Lindau disease tumor suppressor/Histone-lysine N-methyltransferase EZH2 (Homo sapiens) (UniProt Q15910+P40337). The data set can be described thus: Protac activity at VHL/EZH2 in human 22Rv1 cells assessed as reduction in H3K27me3 level at 1 uM incubated for 48 hrs by Western blot analysis. Format: cell-based. (In general: Immunoblotting shows a protein as a band on a membrane.)
T1 sequence (P40337 whole entry, looked up): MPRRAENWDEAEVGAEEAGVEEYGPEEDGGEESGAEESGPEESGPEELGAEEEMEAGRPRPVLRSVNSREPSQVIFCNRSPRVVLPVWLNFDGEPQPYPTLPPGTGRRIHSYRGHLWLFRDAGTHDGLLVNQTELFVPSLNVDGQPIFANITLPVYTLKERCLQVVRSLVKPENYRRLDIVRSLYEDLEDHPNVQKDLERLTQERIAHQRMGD
T1 sequence (Q15910 whole entry, looked up): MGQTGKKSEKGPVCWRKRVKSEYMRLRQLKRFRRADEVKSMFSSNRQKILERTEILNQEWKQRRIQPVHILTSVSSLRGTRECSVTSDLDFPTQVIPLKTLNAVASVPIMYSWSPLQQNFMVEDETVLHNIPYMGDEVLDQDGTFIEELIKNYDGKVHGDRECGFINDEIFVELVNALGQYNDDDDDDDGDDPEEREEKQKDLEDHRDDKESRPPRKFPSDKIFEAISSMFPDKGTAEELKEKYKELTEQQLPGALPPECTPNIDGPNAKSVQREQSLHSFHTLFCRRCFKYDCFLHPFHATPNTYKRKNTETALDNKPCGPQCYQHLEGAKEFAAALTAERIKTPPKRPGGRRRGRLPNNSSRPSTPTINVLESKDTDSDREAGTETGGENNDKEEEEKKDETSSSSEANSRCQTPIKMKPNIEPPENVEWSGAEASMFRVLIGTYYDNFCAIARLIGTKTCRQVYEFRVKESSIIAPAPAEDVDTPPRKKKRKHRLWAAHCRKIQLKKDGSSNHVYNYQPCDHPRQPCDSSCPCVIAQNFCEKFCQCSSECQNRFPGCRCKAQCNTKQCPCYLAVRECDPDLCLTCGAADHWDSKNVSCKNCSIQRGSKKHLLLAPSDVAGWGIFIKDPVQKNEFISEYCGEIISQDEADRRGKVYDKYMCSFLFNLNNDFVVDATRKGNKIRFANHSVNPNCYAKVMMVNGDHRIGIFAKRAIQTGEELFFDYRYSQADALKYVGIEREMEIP

The target in data set [11] is T1, von Hippel-Lindau disease tumor suppressor/Histone-lysine N-methyltransferase EZH2 (Homo sapiens). The data set can be described thus: Protac activity at VHL/EZH2 in human 22Rv1 cells assessed as EZH2 protein abundance after 24 hrs by Western blot analysis. The format is cell-based. The note with it: dose 1-6 µM.
The target in data set [12] is von Hippel-Lindau disease tumor suppressor/Histone-lysine N-methyltransferase EZH1 (Homo sapiens) (UniProt Q92800+P40337). The data set can be described thus: Protac activity at VHL/EZH1 in human 22Rv1 cells assessed as EZH1 protein abundance at 1 to 6 uM after 24 hrs by Western blot analysis. Format: cell-based. Particulars: dose 1-6 µM.
von Hippel-Lindau disease tumor suppressor/Histone-lysine N-methyltransferase EZH1 (Homo sapiens), sequence (P40337 whole entry, looked up): as the sequence (P40337 whole entry, looked up) above
von Hippel-Lindau disease tumor suppressor/Histone-lysine N-methyltransferase EZH1 (Homo sapiens), sequence (Q92800 whole entry, looked up): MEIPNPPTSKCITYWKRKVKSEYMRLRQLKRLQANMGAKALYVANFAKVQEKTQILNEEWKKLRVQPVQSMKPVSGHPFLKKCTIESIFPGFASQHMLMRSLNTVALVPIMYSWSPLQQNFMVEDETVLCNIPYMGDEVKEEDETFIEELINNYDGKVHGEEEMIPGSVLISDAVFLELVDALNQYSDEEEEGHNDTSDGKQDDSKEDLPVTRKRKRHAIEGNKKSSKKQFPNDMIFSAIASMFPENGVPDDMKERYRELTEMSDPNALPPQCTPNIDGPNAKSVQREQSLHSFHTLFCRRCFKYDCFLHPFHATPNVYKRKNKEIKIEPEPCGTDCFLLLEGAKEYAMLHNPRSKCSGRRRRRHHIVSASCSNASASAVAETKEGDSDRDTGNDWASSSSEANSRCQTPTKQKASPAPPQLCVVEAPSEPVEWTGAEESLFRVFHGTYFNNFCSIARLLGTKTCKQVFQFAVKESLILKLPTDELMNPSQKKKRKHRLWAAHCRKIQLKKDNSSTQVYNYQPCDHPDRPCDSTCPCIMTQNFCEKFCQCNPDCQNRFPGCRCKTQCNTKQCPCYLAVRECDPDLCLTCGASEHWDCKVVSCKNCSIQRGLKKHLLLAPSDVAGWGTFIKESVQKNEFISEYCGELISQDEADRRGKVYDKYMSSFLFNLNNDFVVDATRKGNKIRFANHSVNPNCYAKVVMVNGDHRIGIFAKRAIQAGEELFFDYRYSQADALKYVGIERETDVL
For data set [13], the target named is T1, von Hippel-Lindau disease tumor suppressor/Histone-lysine N-methyltransferase EZH2 (Homo sapiens). The data set can be described thus: Protac activity at VHL/EZH2 in human 22Rv1 cells assessed as increase in EZH2 ubiquitination at 2 uM for 12 hrs by immunoprecipitation based Western blot analysis. The format is cell-based.
In data set [14] the test system is SU-DHL-2. The data set can be described thus: Antiproliferative activity against human SUDHL2 cells assessed as reduction in cell viability at 0.01 to 10 uM measured after 5 days by MTS assay. Particulars: dose 0.01-10 µM, time 5.0 day. The format is functional, cell-based.
The subject of data set [15] is SUD4. As to the kind of experiment: Antiproliferative activity against human SU-DHL-4 cells assessed as reduction in cell viability at 0.01 to 10 uM measured after 5 days by MTS assay. Format: functional, cell-based. Particulars: dose 0.01-10 µM, time 5.0 day.
For data set [16], the system named is SU-DHL-6. As to the kind of experiment: Antiproliferative activity against human SU-DHL-6 cells assessed as reduction in cell viability at 0.01 to 10 uM measured after 5 days by MTS assay. The format is functional, cell-based. The note with it: dose 0.01-10 µM, time 5.0 day.
Data set [17] has as its system SU-DHL-6. As to the kind of experiment: Induction of cell cycle arrest in human SU-DHL-6 cells assessed as accumulation of cells at sub G1 phase after 24 hrs by flow cytometry. The note with it: dose 1-5 µM. The format is functional, cell-based.
Data set [18] deals with SU-DHL-6. As to the kind of experiment: Induction of apoptosis in human SU-DHL-6 cells assessed as increase in cleaved PARP level at 1 to 5 uM incubated for 48 hrs by Western blot analysis. Format: functional, cell-based. The note with it: dose 1-5 µM.
Data set [19] has as its system SU-DHL-6. As to the kind of experiment: Induction of apoptosis in human SU-DHL-6 cells assessed as increase in cleaved capase-3 level at 1 to 5 uM incubated for 48 hrs by Western blot analysis. Format: functional, cell-based. Particulars: dose 1-5 µM.
The target of data set [20] is T1, von Hippel-Lindau disease tumor suppressor/Histone-lysine N-methyltransferase EZH2 (Homo sapiens). As to the kind of experiment: Protac activity at VHL/EZH2 in human 22Rv1 cells assessed as reduction in H3K27me3 level after 24 hrs by Western blot analysis. Format: cell-based. The note with it: dose 1-6 µM.
Data set [21] relates to SU-DHL-6. The data set can be described thus: Antitumor activity against human SU-DHL-6 cells xenografted in nude Balb/c mouse assessed as reduction in tumor volume at 80 mg/kg, ip administered for 6 times weekly for 3 weeks. Format: functional, organism-based.
Data set [22] has as its system SU-DHL-6. The data set can be described thus: Antitumor activity against human SU-DHL-6 cells xenografted in nude Balb/c mouse assessed as reduction in EZH2 level in tumor tissue at 80 mg/kg, ip administered for 6 times weekly for 3 weeks by Western blot analysis. Format: functional, organism-based.
Data set [23] relates to SU-DHL-6. The data set can be described thus: Antitumor activity against human SU-DHL-6 cells xenografted in nude Balb/c mouse assessed as reduction in H3K27me3 level in tumor tissue at 80 mg/kg, ip administered for 6 times weekly for 3 weeks by Western blot analysis. Format: functional, organism-based.
Data set [24] deals with SU-DHL-6. The data set can be described thus: Antitumor activity against human SU-DHL-6 cells xenografted in Balb/c mouse assessed as […] in tumor tissue at 80 mg/kg, ip administered for 6 times weekly for 3 weeks by Ki67 staining based immunohistochemistry. Format: functional, organism-based.
Data set [25] has as its system SU-DHL-6. As to the kind of experiment: Antitumor activity against human SU-DHL-6 cells xenografted in Balb/c mouse assessed as inhibition of tumor growth at 80 mg/kg, ip administered for 6 times weekly for 3 weeks by Ki67 staining based immunohistochemistry. The format is functional, organism-based.
In data set [26] the test system is DLBCL. The data set can be described thus: Antitumor activity against patient derived human DLBCL cells assessed as EZH2 degradation for 24 hrs by western blot analysis. Format: functional, cell-based. Particulars: dose 0.1-5 µM.
Data set [27] has as its system DLBCL. The data set can be described thus: Antitumor activity against patient derived human DLBCL cells assessed as increase in capase-3 activity at 1 to 7 uM incubated for 48 hrs by western blot analysis. Format: functional, cell-based. The note with it: dose 1-7 µM.
The subject of data set [28] is DLBCL. As to the kind of experiment: Antitumor activity against patient derived human DLBCL cells assessed as reduction in cell viability at 1 to 7 uM incubated for 48 hrs by adenosine triphosphate assay. The format is functional, cell-based. Particulars: dose 1-7 µM.
Data set [29] has as its system SU-DHL-6. The data set can be described thus: Induction of cell cycle arrest in human SU-DHL-6 cells after 24 hrs by flow cytometry. The format is functional, cell-based. The note with it: dose 1-5 µM.
Data set [30] deals with T1, von Hippel-Lindau disease tumor suppressor/Histone-lysine N-methyltransferase EZH2 (Homo sapiens). As to the kind of experiment: Protac activity at VHL/EZH2 in human 22Rv1 cells assessed as reduction in EZH2 level at 1 uM incubated for 48 hrs by Western blot analysis. The format is cell-based.
Data set [31] relates to DLBCL. As to the kind of experiment: Antitumor activity against patient derived human DLBCL cells assessed as increase in capase-6 activity at 1 to 7 uM incubated for 48 hrs by western blot analysis. Particulars: dose 1-7 µM. The format is functional, cell-based.
In data set [32] the test system is SU-DHL-6. The data set can be described thus: Antitumor activity against human SU-DHL-6 cells xenografted in nude Balb/c mouse assessed as reduction in tumor volume at 42.5 mg/kg, ip administered for 6 times weekly for 3 weeks. The format is functional, organism-based.
Data set [33] is described as follows: Toxicity in nude BALB/c mouse xenografted with SU-DHL-6 cells assessed as weight loss at 80 mg/kg, ip administered for 6 times weekly for 3 weeks. Format: organism-based. Particulars: in vivo, 504 h.

The source made the active and inactive calls. No cut-off for these calls is given here.

With `CCN(c1cc(-c2ccc(CN3CCOCC3)cc2)cc(C(=O)NCc2c(C)cc(C)[nH]c2=O)c1C)C1CCOCC1` [TAZEMETOSTAT], the result in the data set with SU-DHL-6 [1] and with SU-DHL-6 [7] was inactive. In addition, the viability at 10 µM in the data set on SU-DHL-2 [2], with SUD4 [3] and with SU-DHL-6 [4] was 25% throughout. Moreover, the outcome with SU-DHL-2 [5], with SU-DHL-6 [6] and in the data set with SU-DHL-6 [9] was Active. Besides, the Activity result in [8] is on record as “Non-Toxic”.
Regarding `CCN(c1cc(-c2ccc(OCCCOCC(=O)N[C@H](C(=O)N3C[C@H](O)C[C@H]3C(=O)NCc3ccc(-c4scnc4C)cc3)C(C)(C)C)cc2)cc(C(=O)NCc2c(C)cc(C)[nH]c2=O)c1C)C1CCOCC1`, the result (in [10]; in data set [13]; in the data set on SU-DHL-2 [14]; in the data set with SUD4 [15]; in the data set on SU-DHL-6 [16]; in the data set on SU-DHL-6 [18]) was Active. Besides, the result in the data set with SU-DHL-6 [19], in the data set on SU-DHL-6 [21], in the data set with SU-DHL-6 [22], in the data set with SU-DHL-6 [23], in the data set on SU-DHL-6 [24] and in the data set with SU-DHL-6 [25] was Active. Also, the outcome (in the data set with DLBCL [27]; in the data set on DLBCL [28]; in data set [30]; in the data set on DLBCL [31]) was Active. For the same compound, the Activity entry (in data set [11]; with SU-DHL-6 [17]; in the data set on SU-DHL-6 [7]; in data set [20]; in the data set on DLBCL [26]; with SU-DHL-6 [29]) was “Dose-Dependent Effect” in each case. Also, the Activity result in data set [33] is reported as “Non-Toxic”. Moreover, the result (in data set [12]; in the data set on SU-DHL-6 [32]) was inactive.
